Here are results for eleven substances from US12084522B2, “Peptides, combination of peptides, and cell based medicaments for use in immunotherapy against urinary bladder cancer and other cancers” (Immatics Biotechnologies GmbH, priority 2016, dated 2024).

Assay [1] deals with CD8+ T cells from healthy HLA-A*02 donors. The assay is described as follows: In vitro immunogenicity: priming of CD8+ T cells with aAPCs loaded with peptide/MHC complexes and anti-CD28, pMHC multimer readout. The format is cell-based, human. The conditions noted are these: HLA-A*02 restricted peptides, positive wells among evaluable, Table 10B. An excerpt:
In order to obtain information regarding the immunogenicity of the TUMAPs of the present invention, the inventors performed investigations using an in vitro T-cell priming assay based on repeated stimulations of CD8+ T cells with artificial antigen presenting cells (aAPCs) loaded with peptide/MHC complexes and anti-CD28 antibody.
In order to perform in vitro stimulations by artificial antigen presenting cells loaded with peptide-MHC complex (pMHC) and anti-CD28 antibody, the inventors first isolated CD8+ T cells from fresh HLA-A*02 leukapheresis products via positive selection using CD8 microbeads (Miltenyi Biotec, Bergisch-Gladbach, Germany) of healthy donors obtained from the University clinics Mannheim, Germany, after informed consent.
PBMCs and isolated CD8+ lymphocytes were incubated in T-cell medium (TCM) until use consisting of RPMI-Glutamax (Invitrogen, Karlsruhe, Germany) supplemented with 10% heat inactivated human AB serum (PAN-Biotech, Aidenbach, Germany), 100 U/ml Penicillin/100 μg/ml Streptomycin (Cambrex, Cologne, Germany), 1 mM sodium pyruvate (CC Pro, Oberdorla, Germany), 20 μg/ml Gentamycin (Cambrex). 2.5 ng/ml IL-7 (PromoCell, Heidelberg, Germany) and 10 U/ml IL-2 (Novartis Pharma, Nürnberg, Germany) were also added to the TCM at this step.
Generation of pMHC/anti-CD28 coated beads, T-cell stimulations and readout was performed in a highly defined in vitro system using four different pMHC molecules per stimulation condition and 8 different pMHC molecules per readout condition.
The purified co-stimulatory mouse IgG2a anti human CD28 Ab 9.3 (Jung et al., 1987) was chemically biotinylated using Sulfo-N-hydroxysuccinimidobiotin as recommended by the manufacturer (Perbio, Bonn, Germany). Beads used were 5.6 μm diameter streptavidin coated polystyrene particles (Bangs Laboratories, Illinois, USA).
800.000 beads/200 μl were coated in 96-well plates in the presence of 4×12.5 ng different biotin-pMHC, washed and 600 ng biotin anti-CD28 were added subsequently in a volume of 200 μl. Stimulations were initiated in 96-well plates by co-incubating 1×10^6 CD8+ T cells with 2×10^5 washed coated beads in 200 μl TCM supplemented with 5 ng/ml IL-12 (PromoCell) for 3 days at 37° C. Half of the medium was then exchanged by fresh TCM supplemented with 80 U/ml IL-2 and incubating was continued for 4 days at 37° C. This stimulation cycle was performed for a total of three times. For the pMHC multimer readout using 8 different pMHC molecules per condition, a two-dimensional combinatorial coding approach was used as previously described (Andersen et al., 2012) with minor modifications encompassing coupling to 5 different fluorochromes. Finally, multimeric analyses were performed by staining the cells with Live/dead near IR dye (Invitrogen, Karlsruhe, Germany), CD8-FITC antibody clone SK1 (BD, Heidelberg, Germany) and fluorescent pMHC multimers. For analysis, a BD LSRII SORP cytometer equipped with appropriate lasers and filters was used. Peptide specific cells were calculated as percentage of total CD8+ cells. Evaluation of multimeric analysis was done using the FlowJo software (Tree Star, Oregon, USA). In vitro priming of specific multimer+CD8+ lymphocytes was detected by comparing to negative control stimulations.

For a further assay, the target named is HLA-A*02:01 (Homo sapiens, UniProt P04439, D140Y/D185E/D98H/E176V/E277Q/G131W/G231S/I119V/I121R/I166T/I218V/L300P/L318F/N151K/N90K/P208A/P217A/Q86G/Q94H/R138H/R169H/T345S). Kind of assay: MHC binding assay (UV-ligand exchange, β2m ELISA, peptide exchange yield). The conditions noted are these: binding to HLA-A*02:01 ranged by peptide exchange yield (UV-ligand exchange, β2m ELISA). On the technique in general: In an ELISA, binding on a coated surface is turned into a signal by an enzyme label.

For “50 (VLANRVAVV; listed as Homo sapiens) [compound 50]”, the “Wells positive [%]” value in assay [1] is “++++ (>=70% = ++++)”. Moreover, in the assay with HLA-A*02:01, the Peptide exchange entry is on record as “+++ (>50 = +++)”.
For “53 (ILVQVIPVV; listed as Homo sapiens) [compound 53]”, the “Wells positive [%]” value in assay [1] was “++ (20%-49% = ++)”. Besides, the Peptide exchange result with HLA-A*02:01 was “+++ (>50 = +++)”.
As for “57 (GLAHFVNEI; listed as Homo sapiens) [compound 57]”, in assay [1], the “Wells positive [%]” value is given as “+ (<20% = +)”. In addition, in the assay with HLA-A*02:01, the Peptide exchange result was “++++ (>75% = ++++)”.
For “59 (WLSTSIPEA; listed as Homo sapiens) [compound 59]” the same measures were “+ (<20% = +)” and “++++ (>75% = ++++)”.
In the case of “60 (SLSDVRVIV; listed as Homo sapiens) [compound 60]”, the “Wells positive [%]” value in assay [1] was “+ (<20% = +)”. In the assay with HLA-A*02:01, the Peptide exchange entry is “++++ (>75% = ++++)”.
With “75 (RVISSVISV; listed as Homo sapiens) [compound 75]”, the “Wells positive [%]” value in assay [1] is “++ (20%-49% = ++)”. Also, the Peptide exchange result in the assay with HLA-A*02:01 is given as “+++ (>50 = +++)”.
For “111 (LLDVTPKAV; listed as Homo sapiens) [compound 111]” the same measures were “+++ (50%-69% = +++)” and “+++ (>50 = +++)”.
For “114 (IITKDLFQV; listed as Homo sapiens) [compound 114]”, in that order: “+ (<20% = +)” and “+++ (>50 = +++)”.
“126 (SLLRVGWSV; listed as Homo sapiens) [compound 126]”: the “Wells positive [%]” value in assay [1] is “++ (20%-49% = ++)”. The Peptide exchange entry with HLA-A*02:01 is recorded as “++++ (>75% = ++++)”.
Turning to “146 (YLARIQGFQV; listed as Homo sapiens) [compound 146]”, the “Wells positive [%]” value in assay [1] is recorded as “++ (20%-49% = ++)”. The Peptide exchange entry with HLA-A*02:01 is reported as “++++ (>75% = ++++)”.
As for “148 (TLGVIPESV; listed as Homo sapiens) [compound 148]”, in assay [1], the “Wells positive [%]” value is given as “+ (<20% = +)”. Moreover, in the assay with HLA-A*02:01, the Peptide exchange entry is on record as “++++ (>75% = ++++)”.
